pIC50: −log10 of the molar value.

This assay concerns the target T1, human A934T SLACK (Homo sapiens, UniProt Q5JUK3, A915T).
T1 construct: host or cells: CHO-K1
T1 sequence (Q5JUK3 1-1235 isoform Q5JUK3-3 A934T): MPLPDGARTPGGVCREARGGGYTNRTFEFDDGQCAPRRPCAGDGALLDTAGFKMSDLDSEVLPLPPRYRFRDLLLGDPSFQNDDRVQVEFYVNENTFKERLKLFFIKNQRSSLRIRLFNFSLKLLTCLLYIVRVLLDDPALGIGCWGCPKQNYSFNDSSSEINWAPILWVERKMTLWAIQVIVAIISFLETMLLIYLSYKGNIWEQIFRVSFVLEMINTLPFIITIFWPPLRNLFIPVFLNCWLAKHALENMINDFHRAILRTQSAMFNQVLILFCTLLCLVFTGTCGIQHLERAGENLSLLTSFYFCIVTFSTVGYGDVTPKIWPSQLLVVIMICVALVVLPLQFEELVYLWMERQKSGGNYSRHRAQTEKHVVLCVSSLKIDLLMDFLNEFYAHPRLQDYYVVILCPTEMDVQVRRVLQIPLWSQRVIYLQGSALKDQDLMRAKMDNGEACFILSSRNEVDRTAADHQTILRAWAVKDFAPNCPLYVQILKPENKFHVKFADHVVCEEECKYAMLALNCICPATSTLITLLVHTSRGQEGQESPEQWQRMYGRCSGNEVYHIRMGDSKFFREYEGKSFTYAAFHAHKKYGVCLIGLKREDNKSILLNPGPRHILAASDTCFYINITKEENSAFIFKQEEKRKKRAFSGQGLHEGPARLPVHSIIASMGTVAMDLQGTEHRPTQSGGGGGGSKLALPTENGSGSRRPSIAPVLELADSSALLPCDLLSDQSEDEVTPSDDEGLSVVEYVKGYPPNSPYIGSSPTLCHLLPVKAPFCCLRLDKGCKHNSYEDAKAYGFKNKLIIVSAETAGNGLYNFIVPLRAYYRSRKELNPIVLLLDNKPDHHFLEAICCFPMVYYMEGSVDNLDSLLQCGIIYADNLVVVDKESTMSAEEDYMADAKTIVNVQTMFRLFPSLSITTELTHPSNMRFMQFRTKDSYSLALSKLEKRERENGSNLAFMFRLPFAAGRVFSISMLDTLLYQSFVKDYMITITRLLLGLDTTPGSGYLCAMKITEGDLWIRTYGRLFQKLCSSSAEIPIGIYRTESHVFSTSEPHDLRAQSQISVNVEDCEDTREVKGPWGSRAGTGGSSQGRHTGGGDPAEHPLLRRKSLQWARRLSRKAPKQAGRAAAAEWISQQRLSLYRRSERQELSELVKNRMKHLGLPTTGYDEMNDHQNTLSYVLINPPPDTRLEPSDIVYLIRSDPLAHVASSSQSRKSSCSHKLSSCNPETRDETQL
Put plainly: Whole-cell APC in CHO cells stably expressing human A934T SLACK. To be noted: for pIC50: APC, CHO cells; for Imax: maximum inhibition at 30 µM standardized to VU0606170 (100%). It is filed as cell-based. The text has this: Development of a useful SLACK inhibitor in vivo tool will require potent activity at the corresponding mouse ortholog as studies in appropriate mouse models will be critical. Thus, we evaluated analogs 32 and 48 in our APC assay using CHO cells stably expressing mouse WT SLACK (Table 6). […] We were also eager to evaluate the same compounds with regard to their ability to inhibit clinically relevant GOF SLACK mutants. Both the C-terminus A934T mutant and transmembrane G288S mutant have been associated with clinical cases of EIMFS [3, 7].
Stably transfected monoclonal HEK293 cell lines expressing Slick, Maxi-K α1/β3, Maxi-K α1/β4, CaV3.2, GIRK 1/2, KV2.1, KV7.2, NaV1.7, and TASK-1 were generated as previously described. Stably transfected monoclonal HEK293 cell lines expressing hERG were generated as previously described. CHO-K1 cells expressing human Slack and disease-associated human Slack mutations, G288S and A934T, were generated by transfecting a PiggyBac TRE mammalian expression vector (VectorBuilder, Chicago, IL, USA) containing KCNT1. FuGENE 6 (Promega, Madison, WI, USA) transfection reagent and protocol, together with Opti-MEM (Thermo Fisher Scientific, Walkham, MA, USA), were utilized.
Automated patch-clamp recording was performed with a SyncroPatch 768 PE system (Nanion, Munich, Germany) as previously described. Whole-cell recordings were performed at room temperature. Cells were harvested by first washing with PBS without Mg^2+ or Ca^2+ (Gibco, Billings, MT, USA) to remove cell culture media, followed by dissociation with TryPLE (Gibco, Billings, MT, USA). Cells were then resuspended and diluted to 100,000 cells/mL in external solution. External solution contained 105 mM NaCl, 4 mM KCl, 1 mM MgCl2, 5 mM CaCl2, 10 mM HEPES, and 40 mM N-Methyl-D-glucamine chloride, titrated to pH of 7.4 and osmolarity of 300 mOsm/kg; internal solution contained 70 mM NaCl, 70 mM KF, 10 mM KCl, 5 mM EGTA, and 5 mM HEPES, titrated to a pH of 7.2 and osmolarity of 295 mOsm/kg.
The APC protocol was set as follows: Cells were held at a […] of −80 mV for 100 ms, then a ramp protocol was performed from −100 mV to 80 mV at 0.4 mV/ms, followed by holding the cell at −80 mV for another 100 ms, then steps were performed at −20 mV, 0 mV, +20 mV, +40 mV, and +60 mV for 100 ms of each step. Whole-cell currents were measured at 0 mV and normalized to current after external buffer addition. […] To obtain the concentration-response relationship graphs and IC50 values, we take the median value of the last 7 current amplitude values obtained for each set of data points collected for a given concentration at a particular step.

By pIC50 is commonly meant −log10 of the IC50, conventionally taken in molar units. High values mean a low IC50, low ones a high IC50. `COc1cccc(Cn2c(=O)c3c(nc(N(C)Cc4ccccc4)n3C)n(C)c2=O)c1` [Analog 32] had a pIC50 of 6.11 and an Imax of 99%.

In turn, `CN(Cc1cccc(F)c1)c1nc2c(c(=O)n(Cc3ccccc3)c(=O)n2C)n1C` [Analog 48] showed a pIC50 of 6.09 and an Imax of 100%.

`CCCCN(Cc1cccc(F)c1)c1nc2c(c(=O)n(Cc3cccc(OC)c3)c(=O)n2C)n1C` [Analog 78] gave a pIC50 of 6.46.

Consider `COc1cccc(Cn2c(=O)c3c(nc(N(Cc4cccc(F)c4)CC4CC4)n3C)n(C)c2=O)c1` [Analog 79], for which the pIC50 is 6.00.

Molecule `CCCCN(Cc1ccc(F)cc1)c1nc2c(c(=O)n(Cc3cccc(OC)c3)c(=O)n2C)n1C` [Analog 80] gave a pIC50 of 6.23.

In turn, `COc1cccc(Cn2c(=O)c3c(nc(N(Cc4ccc(F)cc4)CC4CC4)n3C)n(C)c2=O)c1` [Analog 81] showed a pIC50 of 5.92.

Source of the values: PMC11173529, “Structure–Activity Relationship Studies in a Series of Xanthine Inhibitors of SLACK Potassium Channels” (Molecules, 2024).
